# Experimental data published in ChEMBL document CHEMBL1201862, “PubChem BioAssay data set” (2004).
#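 Protocol summary: plate cells (96-well), add compound at 5 concentrations, incubate 48 h, interpolate endpoints linearly. GI50 = concentration required for 50% inhibition of growth.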 Calls of active or inactive are those of the source. Rule as the data show it: active = GI50 up to about 1.1 µM and inactive = higher.
# Tests used:
# Test in all cases: inhibition of tumour cell growth, NCI panel, 48 h
# [1] = tested on: A498
# [2] = tested on: CAKI-1
# [3] = tested on: HCT-15
# [4] = tested on: HL-60
# [5] = tested on: HOP-62
# [6] = tested on: K562
# [7] = tested on: KM12
# [8] = tested on: LOX IMVI
# [9] = tested on: MDA-MB-231
# [10] = tested on: MDA-N
# [11] = tested on: MOLT-4
# [12] = tested on: NCI-H23
# [13] = tested on: NCI/ADR-RES
# [14] = tested on: OVCAR-5
# [15] = tested on: RPMI-8226
# [16] = tested on: SK-MEL-28
# [17] = tested on: SNB-19
# [18] = tested on: T47D
# [19] = tested on: UACC-257
# [20] = tested on: UO-31
Compound,GI50 [1],GI50 [2],GI50 [3],GI50 [4],GI50 [5],GI50 [6],GI50 [7],GI50 [8],GI50 [9],GI50 [10],GI50 [11],GI50 [12],GI50 [13],GI50 [14],GI50 [15],GI50 [16],GI50 [17],GI50 [18],GI50 [19],GI50 [20]
C=C(C)[C@@H](O)[C@H](O)C[C@H](C)C1CC[C@]2(C)C1=CC[C@@H]1[C@@]3(C)CC[C@@H](OC(C)=O)C(C)(C)[C@@H]3C[C@@H](OC3OC(COC(C)=O)C(O)C(O)C3O)[C@]12C (some centres undefined),3.36 µM (inactive),3.52 µM (inactive),3.37 µM,2.05 µM (inactive),2.99 µM (inactive),2.02 µM (inactive),1.6 µM (inactive),1.73 µM (inactive),2.21 µM (inactive),2.81 µM (inactive),2.17 µM (inactive),4.06 µM (inactive),15 µM (inactive),1.87 µM (inactive),2.01 µM (inactive),2.54 µM (inactive),3.71 µM (inactive),2.48 µM (inactive),2.89 µM (inactive),3.48 µM (inactive)
CC(=O)c1c(SCCN2CCCC2)n(-c2ccccc2)c(=S)n(-c2ccccc2)c1=O,14.3 µM (inactive),4.34 µM (inactive),4.01 µM,3.55 µM (inactive),22.4 µM (inactive),2.72 µM (inactive),23.2 µM (inactive),2.49 µM (inactive),8.83 µM (inactive),7.03 µM (inactive),2.41 µM (inactive),17.4 µM (inactive),26.9 µM (inactive),33.7 µM (inactive),1.51 µM (inactive),6.11 µM (inactive),28.4 µM (inactive),2.11 µM (inactive),3.46 µM (inactive),1.4 µM (inactive)
Nc1ncc(Cl)c(NCC2(CO)CC(CCc3ccccc3)C2)n1 (centres undefined),> 100 µM (inactive),12 µM (inactive),> 100 µM,1.13 µM (inactive),> 100 µM (inactive),0.321 µM (active),> 100 µM (inactive),0.785 µM (active),> 100 µM (inactive),> 100 µM (inactive),1.82 µM (inactive),> 100 µM (inactive),3.61 µM (inactive),> 100 µM (inactive),2.79 µM (inactive),> 100 µM (inactive),> 100 µM (inactive),1.07 µM (active),> 100 µM (inactive),> 100 µM (inactive)
COC(=O)[C@@]12C(=O)C(C)C(=O)[C@]1(C)C(C)=C[C@H]1[C@]3(C=O)CC[C@H](OC(C)=O)C(C)(C)[C@H]3CC[C@@]12C (some centres undefined),> 100 µM (inactive),93.1 µM (inactive),> 100 µM,17.7 µM (inactive),> 100 µM (inactive),38.6 µM (inactive),> 100 µM (inactive),70.6 µM (inactive),> 100 µM (inactive),> 100 µM (inactive),11.9 µM (inactive),> 100 µM (inactive),> 100 µM (inactive),> 100 µM (inactive),75.2 µM (inactive),> 100 µM (inactive),> 100 µM (inactive),> 100 µM (inactive),> 100 µM (inactive),> 100 µM (inactive)
Cc1nc2cc(C(F)(F)F)ccc2[nH]c1=O,> 100 µM (inactive),> 100 µM (inactive),> 100 µM,> 100 µM (inactive),> 100 µM (inactive),> 100 µM (inactive),> 100 µM (inactive),> 100 µM (inactive),> 100 µM (inactive),> 100 µM (inactive),> 100 µM (inactive),> 100 µM (inactive),> 100 µM (inactive),> 100 µM (inactive),> 100 µM (inactive),> 100 µM (inactive),> 100 µM (inactive),45.5 µM (inactive),> 100 µM (inactive),> 100 µM (inactive)
CCN1CC2(C)CCC(OC)C34C5CC6CCC(O)(C5C(=O)O6)C(C(O)C23)C14 (centres undefined),> 100 µM (inactive),> 100 µM (inactive),> 100 µM,> 100 µM (inactive),> 100 µM (inactive),> 100 µM (inactive),> 100 µM (inactive),> 100 µM (inactive),> 100 µM (inactive),> 100 µM (inactive),> 100 µM (inactive),> 100 µM (inactive),> 100 µM (inactive),> 100 µM (inactive),> 100 µM (inactive),> 100 µM (inactive),> 100 µM (inactive),> 100 µM (inactive),> 100 µM (inactive),> 100 µM (inactive)
C[C@@H](CC(O)C(O)C(C)(C)O)C1CCC23CC12CCC1[C@@]2(C)CCC(=O)C(C)(C)C2CC(OC2OC(CO)C(O)C(O)C2O)[C@]13C (some centres undefined),> 10 µM (inactive),> 10 µM (inactive),> 10 µM,> 10 µM (inactive),> 10 µM (inactive),> 10 µM (inactive),> 10 µM (inactive),> 10 µM (inactive),> 10 µM (inactive),> 10 µM (inactive),> 10 µM (inactive),> 10 µM (inactive),> 10 µM (inactive),> 10 µM (inactive),> 10 µM (inactive),> 10 µM (inactive),> 10 µM (inactive),> 10 µM (inactive),,> 10 µM (inactive)
